target: T1, human PAH with the R408W mutation (Homo sapiens, UniProt P00439, R408W); test: Cell Based Phenylalanine Flux Assay; settings: A375 cells expressing human R408W PAH; 24 hrs compound incubation; 13C-Tyrosine by LC-MS; average where tested multiple times; read-out: AC50
T1 construct: expressed in transfected cells
T1 sequence (P00439 1-452 R408W): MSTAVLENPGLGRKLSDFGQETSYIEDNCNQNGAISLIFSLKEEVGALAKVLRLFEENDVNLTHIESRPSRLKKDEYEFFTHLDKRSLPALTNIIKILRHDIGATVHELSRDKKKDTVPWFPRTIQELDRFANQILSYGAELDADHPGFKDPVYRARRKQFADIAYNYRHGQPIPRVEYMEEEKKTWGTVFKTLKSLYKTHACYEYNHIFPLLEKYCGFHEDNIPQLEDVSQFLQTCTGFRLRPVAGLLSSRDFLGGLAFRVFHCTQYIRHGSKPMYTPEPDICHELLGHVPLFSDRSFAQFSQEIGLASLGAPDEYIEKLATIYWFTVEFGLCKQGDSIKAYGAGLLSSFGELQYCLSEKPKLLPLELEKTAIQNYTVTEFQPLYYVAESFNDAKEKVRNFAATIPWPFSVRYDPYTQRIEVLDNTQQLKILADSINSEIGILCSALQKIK

Compared with O=C(c1cnco1)N1CCc2[nH]cnc2[C@@H]1c1nc2c(F)cccc2s1 [Example 1224, (R)-(4-(4-fluorobenzo[d]thiazol-2-yl)-6,7-dihydro-1H-imidazo[4,5-c]pyridin-5(4H)-yl)(oxazol-5-yl)methanone], O=C(c1ncco1)N1CCc2[nH]cnc2[C@H]1c1nc2c(F)cccc2s1 [Example 1225, (S)-(4-(4-fluorobenzo[d]thiazol-2-yl)-6,7-dihydro-1H-imidazo[4,5-c]pyridin-5(4H)-yl)(oxazol-2-yl)methanone] is lower in AC50: 1000 to 5000 nM for the first, 500 to 1000 nM for the second.

First: O=C(c1ncco1)N1CCc2[nH]cnc2[C@@H]1c1nc2c(F)cccc2s1 [Example 1226, (R)-(4-(4-fluorobenzo[d]thiazol-2-yl)-6,7-dihydro-1H-imidazo[4,5-c]pyridin-5(4H)-yl)(oxazol-2-yl)methanone]
Second: O=C(c1cnn2cc(Br)ccc12)N1CCc2[nH]cnc2[C@H]1c1nc2c(F)cccc2s1 [Example 1235]
The AC50 of the first is higher: greater than 5000 nM for the first, 500 to 1000 nM for the second.

O=C(c1cnc(Cc2ccccc2)s1)N1CCc2[nH]cnc2[C@H]1c1nc2ccccc2s1 [Example 1227] and O=C(c1cnc(Cc2ccccc2)s1)N1CCc2[nH]cnc2[C@@H]1c1nc2ccccc2s1 [Example 1228, (R)-(4-(benzo[d]thiazol-2-yl)-6,7-dihydro-1H-imidazo[4,5-c]pyridin-5(4H)-yl)(2-benzylthiazol-5-yl)methanone] fall in the same range of AC50: 1000 to 5000 nM for the first, 1000 to 5000 nM for the second.

First: Cn1cc(-c2ncc(C(=O)N3CCc4[nH]cnc4[C@H]3c3nc4ccccc4s3)s2)cn1 [Example 1229]
Second: Cn1cc(-c2ncc(C(=O)N3CCc4[nH]cnc4[C@@H]3c3nc4ccccc4s3)s2)cn1 [Example 1230, (R)-(4-(benzo[d]thiazol-2-yl)-6,7-dihydro-1H-imidazo[4,5-c]pyridin-5(4H)-yl)(2-(1-methyl-1H-pyrazol-4-yl)thiazol-5-yl)methanone]
The AC50 of the first is lower: less than 500 nM for the first, 1000 to 5000 nM for the second.

First: C=Cc1ccc2c(C(=O)N3CCc4[nH]cnc4[C@H]3c3nc4ccccc4s3)cnn2c1 [Example 1231]
Second: C=Cc1ccc2c(C(=O)N3CCc4[nH]cnc4[C@@H]3c3nc4ccccc4s3)cnn2c1 [Example 1232, (R)-(4-(benzo[d]thiazol-2-yl)-6,7-dihydro-1H-imidazo[4,5-c]pyridin-5(4H)-yl)(6-vinylpyrazolo[1,5-a]pyridin-3-yl)methanone]
The AC50 of the first is lower: 500 to 1000 nM for the first, 1000 to 5000 nM for the second.

Compared with O=C(c1cncs1)N1CCc2[nH]cnc2[C@H]1c1nc2cccc(F)c2s1 [Example 1233, (S)-(4-(7-fluorobenzo[d]thiazol-2-yl)-6,7-dihydro-1H-imidazo[4,5-c]pyridin-5(4H)-yl)(thiazol-5-yl)methanone], O=C(c1cncs1)N1CCc2[nH]cnc2[C@@H]1c1nc2cccc(F)c2s1 [Example 1234, (R)-(4-(7-fluorobenzo[d]thiazol-2-yl)-6,7-dihydro-1H-imidazo[4,5-c]pyridin-5(4H)-yl)(thiazol-5-yl)methanone] is higher in AC50: 500 to 1000 nM for the first, 1000 to 5000 nM for the second.

First: O=C(c1cnn2cc(Br)ccc12)N1CCc2[nH]cnc2[C@@H]1c1nc2c(F)cccc2s1 [Example 1236, (R)-(6-bromopyrazolo[1,5-a]pyridin-3-yl)(4-(4-fluorobenzo[d]thiazol-2-yl)-6,7-dihydro-1H-imidazo[4,5-c]pyridin-5(4H)-yl)methanone]
Second: O=C(c1cnn2cc(Cl)ccc12)N1CCc2[nH]cnc2[C@H]1c1nc2c(F)cccc2s1 [Example 1237]
The AC50 of the first is higher: 1000 to 5000 nM for the first, 500 to 1000 nM for the second.

Compared with O=C(c1cnn2cc(Cl)ccc12)N1CCc2[nH]cnc2[C@@H]1c1nc2c(F)cccc2s1 [Example 1238, (R)-(6-chloropyrazolo[1,5-a]pyridin-3-yl)(4-(4-fluorobenzo[d]thiazol-2-yl)-6,7-dihydro-1H-imidazo[4,5-c]pyridin-5(4H)-yl)methanone], O=C(c1cnn2c(Br)cccc12)N1CCc2[nH]cnc2[C@H]1c1nc2c(F)cccc2s1 [Example 1239] is lower in AC50: 1000 to 5000 nM for the first, less than 500 nM for the second.

Reference: US20250171438A1 (Agios Pharmaceuticals, Inc., priority 2022, published 2025)
